Here are results for 1 compound from PMC5370183, “Kinetics of the LOV domain of ZEITLUPE determine its circadian function in Arabidopsis” (eLife, 2017).

Experiment [1] deals with T1, ZEITLUPE LOV domain (ZTL 29-165, ZTL-S) (Arabidopsis thaliana, UniProt Q94BT6, V48I/G80R).
T1 construct: gene ADO1; LOV domain, residues 29-165, E. coli, 6xHis or GST tag cleaved by TEV; monomer 16 kDa, homodimer 33 kDa (MALS)
In words: X-ray crystal structure. Format: binding. To be noted: dark state (5SVV, 2.1 Å) non-covalent; light state (5SVW, 2.3 Å) covalent C4a adduct with C82.

Experiment [2] deals with T2, ZEITLUPE LOV domain (ZTL 29-165, ZTL-S) (Arabidopsis thaliana, UniProt Q94BT6).
T2 construct: gene ADO1; LOV domain, residues 29-165, E. coli, 6xHis or GST tag cleaved by TEV; monomer 16 kDa, homodimer 33 kDa (MALS)
Nature of the experiment: X-ray crystal structure. Format: binding. To be noted: dark state, 2.5 Å; FMN non-covalently bound next to C82.

T1 sequence (Q94BT6 29-165 V48I/G80R): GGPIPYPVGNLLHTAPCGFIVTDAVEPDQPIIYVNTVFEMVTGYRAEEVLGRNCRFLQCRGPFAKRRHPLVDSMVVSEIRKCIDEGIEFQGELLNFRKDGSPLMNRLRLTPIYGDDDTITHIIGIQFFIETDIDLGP
T2 sequence (Q94BT6 29-165): as the sequence (Q94BT6 29-165 V48I/G80R) above, with I20V, R52G counted along it

For `Cc1cc2nc3c(=O)[nH]c(=O)nc-3n(C[C@H](O)[C@H](O)[C@H](O)COP(=O)(O)O)c2cc1C` [FMN], the values for the X-ray crystal structure result in experiment [1] and in experiment [2] were “Light state crystal structure of V48I:G80R” and “The helices cradle the photoreactive FMN adjacent to C82 (Eα helix)”, respectively.
